The source of these data is patent US9012441B2, “Therapeutic compounds” (Gilead Sciences, Inc., priority 2013, dated 2015).

Like-named read-outs stand apart in the source and are kept apart here.

A word on the inhibition: it is the relative decrease from the control value, in per cent. The term CC50 denotes the concentration giving 50% cytotoxicity.

One data set relates to HIV-IIIb. Put plainly: Test A: Antiviral Assay in MT4 Cells. The data set is classed as cell-based, HIV-1. The following applies: Human immunodeficiency virus 1, MT4, 120 h, read-out: % Inh @ 2 uM (percent inhibition of virus-induced cell killing); 2 uM test compound; MT-4 cells infected with HIV-IIIb, 5 days, CellTiter-Glo. How it is done: (§1) Test A: Antiviral Assay in MT4 Cells For the antiviral assay, 40 μL of 1× test concentration of 3-fold serially diluted compound in culture medium with 10% FBS was added to each well of a 384-well plate (10 concentrations) in quadruplicate. MT-4 cells were next mixed with HIV-IIIb at an m.o.i of 0.003 for 1 hour, after which time 35 μL of virus/cell mixture (2000 cells) was immediately added to each well containing 40 μL of diluted compound. The plates were then incubated at 37° C. for 5 days. After 5 days of incubation, 25 μl of 2× concentrated CellTiter-Glo™ Reagent (catalog #G7571, Promega Biosciences, Inc., Madison, Wis.) was added to each well containing MT-4 cells. Cell lysis was carried out by incubating at room temperature for 10 min and then chemiluminescence was read. […] Accordingly, the compounds disclosed herein may be useful for treating an HIV virus infection, treating AIDS or for delaying the onset of AIDS or ARC symptoms.

The nature of data set [1]: Test B: Cytotoxicity Assay (uninfected MT-4 cells). It counts as cell-based. The following applies: human, same protocol as Test A, read-out: MT4-CC50. How it is done:
as §1, with “For” for “Test A: Antiviral Assay in MT4 Cells For”, “Test B: Cytotoxicity Assay Compound cytotoxicity and” for “Accordingly,”, “corresponding CC50 values were determined using” for “compounds disclosed herein may be useful for treating an HIV virus infection, treating AIDS or for delaying”, “same protocol as described in the antiviral assay (Test A) except that uninfected cells were used.” for “onset of AIDS or ARC symptoms.”

Consider `COc1ccc(N(C)C(=O)[C@@H]2Cc3cccc(c3)CSc3[nH]c4ccccc4c3CC(=O)N2)cc1` [Example 20, (9S)—N-(4-methoxyphenyl)-N-methyl-11-oxo-8,9,10,11,12,17-hexahydro-7,3-(metheno)[1,6]thiazacyclotetradecino[2,3-b]indole-9(2H)-carboxamide], for which, in the data set with HIV-IIIb, the inhibition at 2 µM was 97.7%. The same compound registered a ring closure, yield of all isomers (from COc1ccc(N(C)C(=O)[C@@H](N)Cc2cccc(CSc3[nH]c4ccccc4c3CC(=O)O)c2)cc1, amide bond, DPPA, DIPEA, DMF, 3.0 mM, 25.0 °C, 16.0 h) of 65.8%. Besides, the CC50 at 5 days in data set [1] was 45.2 µM.
Consider `COc1ccc(N(C)C(=O)[C@@H]2Cc3cccc(c3)CSCc3[nH]c4ccccc4c3CC(=O)N2)cc1` [Example 15, (10S)—N-(4-methoxyphenyl)-N-methyl-12-oxo-9,10,11,12,13,18-hexahydro-1H-8,4-(metheno)[1,7]thiazacyclopentadecino[3,4-b]indole-10(3H)-carboxamide], for which the inhibition at 2 µM in the data set with HIV-IIIb was 95.8%. Further, the ring closure, yield of all isomers (from COc1ccc(N(C)C(=O)[C@@H](N)Cc2cccc(CSCc3[nH]c4ccccc4c3CC(=O)O)c2)cc1, amide bond, DPPA, DIPEA, DMF, 3.01 mM, 25.0 °C, 16.0 h) was 49.1%. In addition, the CC50 at 5 days in data set [1] was more than 51.4 µM.
For the compound `COc1ccc(N(C)C(=O)[C@@H]2Cc3cccc(c3)CCSCc3[nH]c4ccccc4c3CC(=O)N2)cc1` [Example 5, (11S)—N-(4-methoxyphenyl)-N-methyl-13-oxo-3,4,10,11,12,13,14,19-octahydro-1H-9,5-(metheno)[1,7]thiazacyclohexadecino[3,4-b]indole-11-carboxamide], the inhibition at 2 µM with HIV-IIIb stood at 33.4%. The same compound returned a ring closure, yield of all isomers (from COc1ccc(N(C)C(=O)[C@@H](N)Cc2cccc(CCSCc3[nH]c4ccccc4c3CC(=O)O)c2)cc1, amide bond, DPPA, DIPEA, DMF, 2.95 mM, 25.0 °C, 16.0 h) of 65.8%. Also, in data set [1], the CC50 at 5 days was 49.5 µM.
Regarding `CN(C(=O)N1Cc2cc(F)cc(c2)/C=C\Cc2c(c3ccccc3n2C(=O)OC(C)(C)C)CC(=O)N1)c1ccc(Cl)cc1`, the ring closure, yield of all isomers (from C=CCc1c(CC(=O)NN(Cc2cc(F)cc(Br)c2)C(=O)N(C)c2ccc(Cl)cc2)c2ccccc2n1C(=O)OC(C)(C)C, cc_pd bond, Pd(OAc)2, acetonitrile, 3.1 mM, 110.0 °C, 1.0 h) is 23.6%.
`COc1ccc(N(C)C(=O)[C@@H]2Cc3cccc(c3)/C=C/Cc3c(c4ccccc4n3C(=O)OC(C)(C)C)CC(=O)N2)cc1` came in with a ring closure, yield of all isomers (from C=CCc1c(CC(=O)N[C@@H](Cc2cccc(I)c2)C(=O)N(C)c2ccc(OC)cc2)c2ccccc2n1C(=O)OC(C)(C)C, cc_pd bond, Pd2(dba)3, acetonitrile, 19.6 mM, 82.0 °C) of 57.4%.
As for `COC(=O)[C@@H]1Cc2cc(F)cc(c2)/C=C\Cc2c(c3ccccc3n2C(=O)OC(C)(C)C)CC(=O)N1`, the ring closure, yield of all isomers (from C=CCc1c(CC(=O)N[C@@H](Cc2cc(F)cc(Br)c2)C(=O)OC)c2ccccc2n1C(=O)OC(C)(C)C, cc_pd bond, Pd(PPh3)4, acetonitrile, 4.3 mM, 82.0 °C, 6.0 h) was 49.9%.
Consider `COc1ccc(N(C)C(=O)[C@@H]2Cc3cccc(c3)CCCc3[nH]c4ccccc4c3CC(=O)N2)cc1` [Example 1, (4S)—N-(4-methoxyphenyl)-N-methyl-2-oxo-2,3,4,5,11,12,13,14-octahydro-1H-6,10-(metheno)azacyclopentadecino[5,4-b]indole-4-carboxamide], for which, in the data set with HIV-IIIb, the inhibition at 2 µM came out at 103%. Also, the ring closure, yield of all isomers (from COc1ccc(N(C)C(=O)[C@@H](N)Cc2cccc(CCCc3[nH]c4ccccc4c3CC(=O)O)c2)cc1, amide bond, DPPA, DIPEA, DMF, 2.99 mM, 25.0 °C, 16.0 h) came out at 23.9%. In addition, the CC50 at 5 days in data set [1] is more than 50.3 µM.
With `COc1ccc(N(C)C(=O)[C@@H]2Cc3cccc(c3)SCc3[nH]c4ccccc4c3CC(=O)N2)cc1` [Example 18, (9S)—N-(4-methoxyphenyl)-N-methyl-11-oxo-8,9,10,11,12,17-hexahydro-1H-7,3-(metheno)[1,7]thiazacyclotetradecino[3,4-b]indole-9-carboxamide], the inhibition at 2 µM in the data set on HIV-IIIb is 47.3%. The compound further showed a ring closure, yield of all isomers (from COc1ccc(N(C)C(=O)[C@@H](N)Cc2cccc(SCc3[nH]c4ccccc4c3CC(=O)O)c2)cc1, amide bond, DPPA, DIPEA, DMF, 3.01 mM, 25.0 °C, 16.0 h) of 65.5%. Moreover, the CC50 at 5 days in data set [1] is more than 53 µM.
With `CN(C(=O)[C@@H]1Cc2cccc(c2)CCCc2cc(C(F)(F)F)nn2CC(=O)N1)c1ccc(Cl)cc1` [Example 32], the inhibition at 2 µM in the data set with HIV-IIIb turned out to be 72.3%. Moreover, the ring closure, yield of all isomers (from C=CCc1cc(C(F)(F)F)nn1CC(=O)N[C@@H](Cc1cccc(Br)c1)C(=O)N(C)c1ccc(Cl)cc1, cc_pd bond, Pd(OAc)2 / 2-di-tert-butylphosphino-2'-(N,N-dimethylamino)biphenyl / triethylamine, DMF, 2.81 mM, 120.0 °C, 2 steps) was 15%. For the same compound, in data set [1], the CC50 at 5 days amounted to 22.5 µM.
In turn, `COC(=O)[C@@H]1Cc2cccc(c2)C/C=C/c2[nH]c3ccc(OC)nc3c2CC(=O)N1` yielded a ring closure, yield of all isomers (from C=CCc1cccc(C[C@H](NC(=O)Cc2c(Br)n(C(=O)OC(C)(C)C)c3ccc(OC)nc23)C(=O)OC)c1, cc_pd bond, Pd(OAc)2, DMF, 2.46 mM, 120.0 °C, 5.0 h) of 33.3%.
Take `COc1ccc(N(C)C(=O)[C@@H]2Cc3cc(F)cc(c3)C/C=C/c3[nH]c4ccccc4c3CC(=O)N2)cc1` [Example 27, (4S,12E)-8-fluoro-N-(4-methoxyphenyl)-N-methyl-2-oxo-2,3,4,5,11,14-hexahydro-1H-6,10-(metheno)azacyclopentadecino[5,4-b]indole-4-carboxamide]: the inhibition at 2 µM in the data set on HIV-IIIb amounted to 92.5%. Further, the CC50 at 5 days in data set [1] was 18.9 µM.
Regarding `COc1ccc(N(C)C(=O)[C@@H]2Cc3cccc(c3)CCS(=O)(=O)Cc3[nH]c4ccc(O)cc4c3CC(=O)N2)cc1` [Example 9], the inhibition at 2 µM in the data set on HIV-IIIb was 0.7%. Further, the CC50 at 5 days in data set [1] is more than 53 µM.
